According to patent US20250206732A1, “COMPOUNDS AND METHODS FOR THE TARGETED DEGRADATION OF KRAS” (Arvinas Operations, Inc., priority 2022, published 2025):

Assays:
[1] = molecular target: T1, AsPC-1 HiBiT-KRASG12D (Homo sapiens, UniProt P01116, G12D); assay: HiBiT degradation assay (G12D), AsPC-1 HiBiT-KRASG12D cells; assay type: cell-based; details: 24 hours treatment; for Dmax: ASPC1, AsPC-1 HiBiT-KRASG12D cells, maximum degradation observed; for DC50: AsPC-1 HiBiT-KRASG12D cells, HiBiT luminescence
T1 construct: insert the HiBiT tag onto the N-terminus of one or more of the endogenous KRAS alleles; endogenous in cells; host or cells: AsPC-1 (ATCC CRL-1682), CRISPR-Cas9 knock-in clone, one tagged allele
Procedure, shortened: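 Steps: treat HiBiT-KRASG12D AsPC-1 cells with compound for 24 hours; add alamar blue to 1× and incubate 4 hours to assess viability; wash with PBS; add HiBiT lytic detection reagent, incubate 45 minutes at room temperature; read luminescence. Viability fluorescence is normalized to DMSO wells.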

[2] = molecular target: T2, SW1573 HiBiT-KRASG12C (Homo sapiens, UniProt P01116, G12C); assay: HiBiT degradation assay (G12C), SW1573 HiBiT-KRASG12C cells; assay type: cell-based; details: 24 hours treatment; for DC50: HiBiT luminescence;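 on DC50: Letter grades: C is 1000 to 3000 nM and D is above 3000 nM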
T2 construct: expressed in transfected cells
Description: Reagents. SW1573 (CRL-2170), AsPC-1 (CRL-1682), and SW620 (CCL-227) cells were purchased from ATCC. SW1573 cells are homozygous for the G12C mutation in KRAS, AsPC-1 cells are homozygous for the G12D mutation, and SW620 cells are homozygous for the G12V mutation. SW1573 cells were cultured in DMEM+F12+Glutamax (+Sodium Bicarbonate, +sodium pyruvate, ThermoFisher scientific, #10565) supplemented with 10% FBS (ThermoFisher scientific, #2060357) and 1% Antibiotic-Antimycotic (ThermoFisher scientific, #15240096). AsPC-1 cells were cultured in GIBCO RPMI-1640 (ThermoFisher scientific, catalog #61870-036 with Glutamax, No HEPES, No Na Pyruvate) supplemented with 10% FBS (ThermoFisher scientific, catalog #2060357) and 1× Penicillin-Streptomycin (ThermoFisher scientific, catalog #15140122, 10000 U/ml, 100×). SW620 cells were cultured in DMEM Glutamax (ThermoFisher scientific, catalog #10566016) supplemented with 10% FBS (ThermoFisher scientific, catalog #2060357) and 1× Penicillin-Streptomycin (ThermoFisher scientific, catalog #15140122, 10000 U/ml, 100×). For degradation assays, 384 well plates were used. Alamar blue was purchased from ThermoFisher scientific (A50101) and used according to manufacturer instructions. The Nano-Glo® HiBiT Lytic Detection System and Nano-Glo® HiBiT Blotting System were purchased from Promega (#N3050 and #N2410) and used according to manufacturer instructions.
HiBiT-tagged cell line generation. To create the SW1573 HiBiT-KRASG12C cell line, the nucleotide sequence encoding the 11 amino acid HiBiT tag from Promegal was appended to the N-terminus of the KRASG12C coding sequence. This synthesized DNA was cloned into a modified pcDNA3.1 vector under the control of the thymidine kinase (TK) promoter. This HiBiT-KRASG12C expressing plasmid was transfected into parental SW1573 cells and colonies were selected using 400 μg/mL zeocin. The resulting clonal lines were screened for expression of HiBiT-KRASG12C protein using Nano-Glo® HiBiT Blotting System. A luminescent band of the correct size for HiBiT-KRASG12C was detected in several clones. Clone E6 was selected for further studies.
HiBiT degradation assays (G12C and G12D). Either SW1573 HiBiT-KRasG12C or AsPC-1 HiBiT-KRasG12D cells were plated at 9000 or 15,000 cells/well in a 384 well plate (Corning #3770). Compounds of the present disclosure and positive controls were diluted in the appropriate cell media and applied to the plated cells resulting in a final concentration titration of 10 μM to 508 pM in 0.5% DMSO. Gambogic acid was used as a positive control for cytotoxicity and titrated from 10 μM to 78 nM. All assays were performed in triplicate. Cells were treated with compounds for 24 hours at 37° C. in an incubator containing 5% CO2. Following treatment, alamar blue was used to determine if any compounds led to a loss in cell viability after 24 hours. The 10× alamar blue reagent was added to a final concentration of 1× as recommended by the manufacturer and cells were returned to the incubator for 4 hours. Plates were then allowed to equilibrate to room temperature and fluorescence was measured using a Perkin-Elmer EnVision. After completion of the fluorescence read, the liquid from each well was removed and the cells were washed with PBS. The Nano-Glo® HiBiT detection reagent was prepared according to the manufacturer's instructions and added to each well after the PBS wash was removed. Following incubation at room temperature for 45 minutes, the luminescence was read using the ultra-sensitive luminescence aperture on the Envision instrument.
Data analysis. Fluorescence values from the alamar blue treatment were normalized to the DMSO-only control for each compound titration. […]

T1 sequence (P01116 1-188 isoform P01116-2 G12D): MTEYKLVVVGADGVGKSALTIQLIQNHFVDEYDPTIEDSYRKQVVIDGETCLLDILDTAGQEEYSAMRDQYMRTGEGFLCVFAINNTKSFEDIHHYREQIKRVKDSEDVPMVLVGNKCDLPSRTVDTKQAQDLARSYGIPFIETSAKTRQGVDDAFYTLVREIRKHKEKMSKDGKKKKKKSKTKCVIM
T2 sequence (P01116 1-188 isoform P01116-2 G12C): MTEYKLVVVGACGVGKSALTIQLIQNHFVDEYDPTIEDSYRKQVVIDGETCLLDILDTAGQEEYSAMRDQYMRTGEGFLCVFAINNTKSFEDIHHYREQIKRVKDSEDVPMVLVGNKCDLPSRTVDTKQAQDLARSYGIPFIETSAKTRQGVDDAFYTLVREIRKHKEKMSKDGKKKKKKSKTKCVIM

Row | SMILES | Dmax [1] [%] | DC50 [1] [µM] | DC50 [2] [µM] | Dmax ([2]; maximum degradation observed) [%]
1 | CCc1cccc2cc(O)cc(-c3ncc4c(N5CC6CCC(C5)N6)nc(OCCN5CCC(OCCOCC(=O)N[C@H](C(=O)N6C[C@H](O)C[C@H]6C(=O)N[C@@H](C)c6ccc(-c7scnc7C)cc6)C(C)(C)C)CC5)nc4c3F)c12 [Compound 11] | 60 to 80 | 1 to 3 | > 3 | 
2 | Cc1ncsc1-c1ccc([C@H](C)NC(=O)[C@@H]2C[C@@H](O)CN2C(=O)[C@@H](c2cc(OCC3CCN(CCOc4nc(N5CC6CCC(C5)N6)c5cnc(-c6c(OC(F)(F)F)ccc7[nH]ncc67)c(F)c5n4)CC3)no2)C(C)C)cc1 [Compound 47, (2S,4R)-1-[(2R)-2-{3-[(1-{2-[(4-{3,8-diazabicyclo[3.2.1]octan-3-yl}-8-fluoro-7-[5-(trifluoromethoxy)-1H-indazol-4-yl]pyrido[4,3-d]pyrimidin-2-yl)oxy]ethyl}piperidin-4-yl)methoxy]-1,2-oxazol-5-yl}-3-methylbutanoyl]-4-hydroxy-N-[(1S)-1-[4-(4-methyl-1,3-thiazol-5-yl)phenyl]ethyl]pyrrolidine-2-carboxamide] |  | > 3 | > 3 | 
3 | Cc1ncsc1-c1ccc([C@H](C)NC(=O)[C@@H]2C[C@@H](O)CN2C(=O)[C@@H](NC(=O)COCC2CCN(CCOc3nc(N4CC5CCC(C4)N5)c4cnc(-c5cc(O)cc6ccccc56)c(F)c4n3)CC2)C(C)(C)C)cc1 [Compound 23, (2S,4R)-1-[(2S)-2-[[2-[[1-[2-[4-(3,8-diazabicyclo[3.2.1]octan-3-yl)-8-fluoro-7-(3-hydroxy-1-naphthyl)pyrido[4,3-d]pyrimidin-2-yl]oxyethyl]-4-piperidyl]methoxy]acetyl]amino]-3,3-dimethyl-butanoyl]-4-hydroxy-N-[(1S)-1-[4-(4-methylthiazol-5-yl)phenyl]ethyl]pyrrolidine-2-carboxamide] | 20 to 60 | 1 to 3 | > 3 | 
4 | CCc1cccc2cc(O)cc(-c3ncc4c(N5CC6CCC(C5)N6)nc(OCCN5CCC(COCC(=O)N[C@H](C(=O)N6C[C@@H](O)C[C@H]6C(=O)N[C@@H](C)c6ccc(-c7scnc7C)cc6)C(C)(C)C)CC5)nc4c3F)c12 [Compound 10, (2S,4S)-1-[(2S)-2-[[2-[[1-[2-[4-(3,8-diazabicyclo[3.2.1]octan-3-yl)-7-(8-ethyl-3-hydroxy-1-naphthyl)-8-fluoro-pyrido[4,3-d]pyrimidin-2-yl]oxyethyl]-4-piperidyl]methoxy]acetyl]amino]-3,3-dimethyl-butanoyl]-4-hydroxy-N-[(1S)-1-[4-(4-methylthiazol-5-yl)phenyl]ethyl]pyrrolidine-2-carboxamide] |  | > 3 | > 3 | 
5 | CCc1cccc2cc(O)cc(-c3ncc4c(N5CC6CCC(C5)N6)nc(OCCN5CCC6(CC5)CN(c5cc([C@H](C(=O)N7C[C@H](O)C[C@H]7C(=O)N[C@@H](C)c7ccc(-c8scnc8C)cc7)C(C)C)on5)C6)nc4c3F)c12 [Compound 16, (2S,4R)-1-[(2R)-2-[3-[7-[2-[4-(3,8-diazabicyclo[3.2.1]octan-3-yl)-7-(8-ethyl-3-hydroxy-1-naphthyl)-8-fluoro-pyrido[4,3-d]pyrimidin-2-yl]oxyethyl]-2,7-diazaspiro[3.5]nonan-2-yl]isoxazol-5-yl]-3-methyl-butanoyl]-4-hydroxy-N-[(1S)-1-[4-(4-methylthiazol-5-yl)phenyl]ethyl]pyrrolidine-2-carboxamide] | 80 to 100 | < 0.6 | > 3 | 
6 | Cc1ncsc1-c1ccc([C@H](C)NC(=O)[C@@H]2C[C@@H](O)CN2C(=O)[C@@H](c2cc(OCC3CCN(CCOc4nc(N5CC6CCC(C5)N6)c5cnc(-c6cc(O)cc(Cl)c6C6CC6)c(F)c5n4)CC3)no2)C(C)C)cc1 [Compound 43, (2S,4R)-1-[(2R)-2-(3-{[1-(2-{[7-(3-chloro-2-cyclopropyl-5-hydroxyphenyl)-4-{3,8-diazabicyclo[3.2.1]octan-3-yl}-8-fluoropyrido[4,3-d]pyrimidin-2-yl]oxy}ethyl)piperidin-4-yl]methoxy}-1,2-oxazol-5-yl)-3-methylbutanoyl]-4-hydroxy-N-[(1S)-1-[4-(4-methyl-1,3-thiazol-5-yl)phenyl]ethyl]pyrrolidine-2-carboxamide] | 80 to 100 | < 0.6 | > 3 | 20 to 60
7 | CCc1cccc2cc(O)cc(-c3ncc4c(N5CC6CCC(C5)N6)nc(OC[C@@]56CCCN5[C@H](COC(=O)N5CCN(c7cc([C@@H](C(=O)N8C[C@H](O)C[C@H]8C(=O)N[C@@H](C)c8ccc(-c9scnc9C)cc8)C(C)C)on7)CC5)CC6)nc4c3F)c12 [Compound 4] | 20 to 60 | < 0.6 | > 3 | 
8 | CCc1cccc2cc(O)cc(-c3ncc4c(N5CCCCCC5)nc(OC[C@@]56CCCN5[C@H](COC(=O)N5CCN(c7cc([C@@H](C(=O)N8C[C@H](O)C[C@H]8C(=O)N[C@@H](C)c8ccc(-c9scnc9C)cc8)C(C)C)on7)CC5)CC6)nc4c3F)c12 [Compound 44, [(3S,7aS)-7a-({[4-(azepan-1-yl)-7-(8-ethyl-3-hydroxynaphthalen-1-yl)-8-fluoropyrido[4,3-d]pyrimidin-2-yl]oxy}methyl)-hexahydro-1H-pyrrolizin-3-yl]methyl 4-{5-[(2S)-1-[(2S,4R)-4-hydroxy-2-{[(1S)-1-[4-(4-methyl-1,3-thiazol-5-yl)phenyl]ethyl]carbamoyl}pyrrolidin-1-yl]-3-methyl-1-oxobutan-2-yl]-1,2-oxazol-3-yl}piperazine-1-carboxylate] | < 20 | < 0.6 | > 3 | 
9 | CCc1cccc2cc(O)cc(-c3ncc4c(N5CC6CCC(C5)N6)nc(OCCN5CCC6(CC5)CN(c5cc([C@@H](C(=O)N7C[C@H](O)C[C@H]7C(=O)N[C@@H](C)c7ccc(-c8scnc8C)cc7)C(C)C)on5)C6)nc4c3F)c12 [Compound 15, (2S,4R)-1-[(2S)-2-[3-[7-[2-[4-(3,8-diazabicyclo[3.2.1]octan-3-yl)-7-(8-ethyl-3-hydroxy-1-naphthyl)-8-fluoro-pyrido[4,3-d]pyrimidin-2-yl]oxyethyl]-2,7-diazaspiro[3.5]nonan-2-yl]isoxazol-5-yl]-3-methyl-butanoyl]-4-hydroxy-N-[(1S)-1-[4-(4-methylthiazol-5-yl)phenyl]ethyl]pyrrolidine-2-carboxamide] | 20 to 60 | 1 to 3 | > 3 | 
10 | Cc1ncsc1-c1ccc([C@H](C)NC(=O)[C@@H]2C[C@@H](O)CN2C(=O)[C@@H](c2cc(OCC3CCN(CCOc4nc(N5CC6CCC(C5)N6)c5cnc(-c6cc(O)cc7cccc(Cl)c67)c(F)c5n4)CC3)no2)C(C)C)cc1 [Compound 40, (2S,4R)-1-[(2R)-2-(3-{[1-(2-{[7-(8-chloro-3-hydroxynaphthalen-1-yl)-4-{3,8-diazabicyclo[3.2.1]octan-3-yl}-8-fluoropyrido[4,3-d]pyrimidin-2-yl]oxy}ethyl)piperidin-4-yl]methoxy}-1,2-oxazol-5-yl)-3-methylbutanoyl]-4-hydroxy-N-[(1S)-1-[4-(4-methyl-1,3-thiazol-5-yl)phenyl]ethyl]pyrrolidine-2-carboxamide] | 80 to 100 | < 0.6 | > 3 | 
